Measured values: PubChem BioAssay AID1918994 (Molecular Pharmacology Branch, DTP, NCI, 2023)

Test system: 292921-168-R-J2-PDC complex spheroid growth
Assay: Anticancer human tumor 292921-168-R-J2-PDC patient-derived pancreatic carcinoma cell line growth inhibition [AhR]
Conditions: for IC50: curve of first compound; for viability, T/C: stronger effect = lower value
Procedure, shortened: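 Spheroids combined tumor cells with HUVEC endothelial cells and human MSCs as stroma. AhR antagonists were paired with standard or investigational drugs, each dosed in half-log steps down from near clinical Cmax, or from 10 microM where Cmax was unknown.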

[1] = second compound 0.1 µM, first compound 0.0316 µM
[2] = second compound 0.1 µM, first compound 0.1 µM
[3] = second compound 0.1 µM, first compound 0.316 µM
[4] = second compound 0.1 µM, first compound 1 µM
[5] = second compound 0.1 µM, first compound 3.16 µM
[6] = second compound 0.1 µM, first compound 10 µM
[7] = second compound 0.316 µM, first compound 0.0316 µM
[8] = second compound 0.316 µM, first compound 0.1 µM
[9] = second compound 0.316 µM, first compound 0.316 µM
[10] = second compound 0.316 µM, first compound 1 µM
[11] = second compound 0.316 µM, first compound 3.16 µM
[12] = second compound 0.316 µM, first compound 10 µM
[13] = second compound 1 µM, first compound 0.0316 µM
[14] = second compound 1 µM, first compound 0.1 µM
[15] = second compound 1 µM, first compound 0.316 µM
[16] = second compound 1 µM, first compound 1 µM
[17] = second compound 1 µM, first compound 3.16 µM
[18] = second compound 1 µM, first compound 10 µM
[19] = second compound 3.16 µM, first compound 0.0316 µM
[20] = second compound 3.16 µM, first compound 0.1 µM
[21] = second compound 3.16 µM, first compound 0.316 µM
[22] = second compound 3.16 µM, first compound 1 µM
[23] = second compound 3.16 µM, first compound 3.16 µM
[24] = second compound 3.16 µM, first compound 10 µM
[25] = second compound 10 µM, first compound 0.0316 µM
[26] = second compound 10 µM, first compound 0.1 µM
[27] = second compound 10 µM, first compound 0.316 µM
[28] = second compound 10 µM, first compound 1 µM
[29] = second compound 10 µM, first compound 3.16 µM
[30] = second compound 10 µM, first compound 10 µM
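Also: spheroids exposed to compounds for seven days after three days of growth.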

## CC(C)c1c(-c2ccccc2)nc2c(C#N)c[nH]n2c1=O + Cc1ccccc1N=Nc1ccc(NC(=O)c2ccnn2C)c(C)c1
Second compound 0.1 µM
  IC50: > 10000 nM
Second compound 0.316 µM
  IC50: > 10000 nM
Second compound 1 µM
  IC50: > 10000 nM
Second compound 3.16 µM
  IC50: > 10000 nM
Second compound 10 µM
  IC50: > 10000 nM
[1]
  viability, T/C: 86.5%
[2]
  viability, T/C: 86%
[3]
  viability, T/C: 91.9%
[4]
  viability, T/C: 88.7%
[5]
  viability, T/C: 89.8%
[6]
  viability, T/C: 96.5%
[7]
  viability, T/C: 79.3%
[8]
  viability, T/C: 85.2%
[9]
  viability, T/C: 86.1%
[10]
  viability, T/C: 81.2%
[11]
  viability, T/C: 94%
[12]
  viability, T/C: 85.9%
[13]
  viability, T/C: 84.2%
[14]
  viability, T/C: 86.2%
[15]
  viability, T/C: 80.8%
[16]
  viability, T/C: 87%
[17]
  viability, T/C: 83.6%
[18]
  viability, T/C: 81.8%
[19]
  viability, T/C: 78.6%
[20]
  viability, T/C: 72.3%
[21]
  viability, T/C: 78.8%
[22]
  viability, T/C: 76.8%
[23]
  viability, T/C: 74%
[24]
  viability, T/C: 65.8%
[25]
  viability, T/C: 58.1%
[26]
  viability, T/C: 61.2%
[27]
  viability, T/C: 58.6%
[28]
  viability, T/C: 63.9%
[29]
  viability, T/C: 65%
[30]
  viability, T/C: 50.3%

## CC1COCCN1c1cc(-c2ccnn2C)c2ccnc(-c3ccn[nH]3)c2n1 (stereo not given) + Cc1ccccc1N=Nc1ccc(NC(=O)c2ccnn2C)c(C)c1
Second compound 0.1 µM
  IC50: 38.5 nM
Second compound 0.316 µM
  IC50: 43.9 nM
Second compound 1 µM
  IC50: 33.1 nM
Second compound 3.16 µM
  IC50: 20 nM
Second compound 10 µM
  IC50: 13.2 nM
Second compound 0.1 µM, first compound 0.00316 µM
  viability, T/C: 95.7%
Second compound 0.1 µM, first compound 0.01 µM
  viability, T/C: 86.6%
[1]
  viability, T/C: 54.5%
[2]
  viability, T/C: 26.6%
[3]
  viability, T/C: 18.5%
[4]
  viability, T/C: 15.5%
Second compound 0.316 µM, first compound 0.00316 µM
  viability, T/C: 90.8%
Second compound 0.316 µM, first compound 0.01 µM
  viability, T/C: 81.6%
[7]
  viability, T/C: 58.9%
[8]
  viability, T/C: 28.8%
[9]
  viability, T/C: 18%
[10]
  viability, T/C: 16.2%
Second compound 1 µM, first compound 0.00316 µM
  viability, T/C: 83.4%
Second compound 1 µM, first compound 0.01 µM
  viability, T/C: 74.3%
[13]
  viability, T/C: 51.8%
[14]
  viability, T/C: 25%
[15]
  viability, T/C: 19.3%
[16]
  viability, T/C: 15.7%
Second compound 3.16 µM, first compound 0.00316 µM
  viability, T/C: 79.2%
Second compound 3.16 µM, first compound 0.01 µM
  viability, T/C: 68.1%
[19]
  viability, T/C: 37.3%
[20]
  viability, T/C: 23.2%
[21]
  viability, T/C: 16.7%
[22]
  viability, T/C: 13.8%
Second compound 10 µM, first compound 0.00316 µM
  viability, T/C: 57.8%
Second compound 10 µM, first compound 0.01 µM
  viability, T/C: 57%
[25]
  viability, T/C: 29.8%
[26]
  viability, T/C: 25.1%
[27]
  viability, T/C: 19.2%
[28]
  viability, T/C: 15.8%

## CC1COCCN1c1cc(C2(S(C)(=N)=O)CC2)nc(-c2ccnc3[nH]ccc23)n1 (stereo not given) + Cc1ccccc1N=Nc1ccc(NC(=O)c2ccnn2C)c(C)c1
Second compound 0.1 µM
  IC50: 2760 nM
Second compound 0.316 µM
  IC50: 2520 nM
Second compound 1 µM
  IC50: 2080 nM
Second compound 3.16 µM
  IC50: 1810 nM
Second compound 10 µM
  IC50: 1480 nM
[1]
  viability, T/C: 89.7%
[2]
  viability, T/C: 96%
[3]
  viability, T/C: 93.9%
[4]
  viability, T/C: 83.1%
[5]
  viability, T/C: 45.6%
[6]
  viability, T/C: 21%
[7]
  viability, T/C: 98.8%
[8]
  viability, T/C: 84.3%
[9]
  viability, T/C: 88.3%
[10]
  viability, T/C: 79.5%
[11]
  viability, T/C: 42.6%
[12]
  viability, T/C: 24.4%
[13]
  viability, T/C: 86.4%
[14]
  viability, T/C: 83.7%
[15]
  viability, T/C: 85.4%
[16]
  viability, T/C: 69.8%
[17]
  viability, T/C: 38.6%
[18]
  viability, T/C: 19.2%
[19]
  viability, T/C: 80%
[20]
  viability, T/C: 78.8%
[21]
  viability, T/C: 68%
[22]
  viability, T/C: 65.6%
[23]
  viability, T/C: 37.4%
[24]
  viability, T/C: 16.7%
[25]
  viability, T/C: 66.9%
[26]
  viability, T/C: 55.7%
[27]
  viability, T/C: 58.2%
[28]
  viability, T/C: 58.3%
[29]
  viability, T/C: 34.3%
[30]
  viability, T/C: 21.5%

## COc1ccc([C@@H](O)c2cc(-c3ncnc4cc(N5CCOCC5)ccc34)c(F)cc2Cl)nn1 + Cc1ccccc1N=Nc1ccc(NC(=O)c2ccnn2C)c(C)c1
Second compound 0.1 µM
  IC50: 1950 nM
Second compound 0.316 µM
  IC50: 1930 nM
Second compound 1 µM
  IC50: 1650 nM
Second compound 3.16 µM
  IC50: 1320 nM
Second compound 10 µM
  IC50: 529 nM
[1]
  viability, T/C: 89.1%
[2]
  viability, T/C: 81.5%
[3]
  viability, T/C: 81%
[4]
  viability, T/C: 56.2%
[5]
  viability, T/C: 44.9%
[6]
  viability, T/C: 27%
[7]
  viability, T/C: 90%
[8]
  viability, T/C: 80.9%
[9]
  viability, T/C: 79.2%
[10]
  viability, T/C: 59.7%
[11]
  viability, T/C: 42.1%
[12]
  viability, T/C: 24%
[13]
  viability, T/C: 76.5%
[14]
  viability, T/C: 81.6%
[15]
  viability, T/C: 71.6%
[16]
  viability, T/C: 55.8%
[17]
  viability, T/C: 41%
[18]
  viability, T/C: 22.4%
[19]
  viability, T/C: 70.7%
[20]
  viability, T/C: 68%
[21]
  viability, T/C: 66.6%
[22]
  viability, T/C: 52%
[23]
  viability, T/C: 38.5%
[24]
  viability, T/C: 21%
[25]
  viability, T/C: 57.4%
[26]
  viability, T/C: 54.6%
[27]
  viability, T/C: 53.7%
[28]
  viability, T/C: 46.8%
[29]
  viability, T/C: 34.9%
[30]
  viability, T/C: 20.4%

## O=C(C=Cn1cnc(-c2cc(C(F)(F)F)cc(C(F)(F)F)c2)n1)NNc1cnccn1 + Cc1ccccc1N=Nc1ccc(NC(=O)c2ccnn2C)c(C)c1
Second compound 0.1 µM
  IC50: 194 nM
Second compound 0.316 µM
  IC50: 126 nM
Second compound 1 µM
  IC50: 115 nM
Second compound 3.16 µM
  IC50: 76.4 nM
Second compound 10 µM
  IC50: 29.1 nM
Second compound 0.1 µM, first compound 0.00949 µM
  viability, T/C: 88.1%
Second compound 0.1 µM, first compound 0.03 µM
  viability, T/C: 84.6%
Second compound 0.1 µM, first compound 0.0949 µM
  viability, T/C: 75.5%
Second compound 0.1 µM, first compound 0.3 µM
  viability, T/C: 34.5%
Second compound 0.1 µM, first compound 0.949 µM
  viability, T/C: 16%
Second compound 0.1 µM, first compound 3 µM
  viability, T/C: 12%
Second compound 0.316 µM, first compound 0.00949 µM
  viability, T/C: 95.8%
Second compound 0.316 µM, first compound 0.03 µM
  viability, T/C: 77.9%
Second compound 0.316 µM, first compound 0.0949 µM
  viability, T/C: 58.1%
Second compound 0.316 µM, first compound 0.3 µM
  viability, T/C: 31%
Second compound 0.316 µM, first compound 0.949 µM
  viability, T/C: 14.9%
Second compound 0.316 µM, first compound 3 µM
  viability, T/C: 9.51%
Second compound 1 µM, first compound 0.00949 µM
  viability, T/C: 78.1%
Second compound 1 µM, first compound 0.03 µM
  viability, T/C: 61.8%
Second compound 1 µM, first compound 0.0949 µM
  viability, T/C: 57.9%
Second compound 1 µM, first compound 0.3 µM
  viability, T/C: 30.6%
Second compound 1 µM, first compound 0.949 µM
  viability, T/C: 13%
Second compound 1 µM, first compound 3 µM
  viability, T/C: 9.8%
Second compound 3.16 µM, first compound 0.00949 µM
  viability, T/C: 79.2%
Second compound 3.16 µM, first compound 0.03 µM
  viability, T/C: 64%
Second compound 3.16 µM, first compound 0.0949 µM
  viability, T/C: 48.2%
Second compound 3.16 µM, first compound 0.3 µM
  viability, T/C: 26.4%
Second compound 3.16 µM, first compound 0.949 µM
  viability, T/C: 15.2%
Second compound 3.16 µM, first compound 3 µM
  viability, T/C: 8.58%
Second compound 10 µM, first compound 0.00949 µM
  viability, T/C: 59.8%
Second compound 10 µM, first compound 0.03 µM
  viability, T/C: 50.8%
Second compound 10 µM, first compound 0.0949 µM
  viability, T/C: 37.1%
Second compound 10 µM, first compound 0.3 µM
  viability, T/C: 29.1%
Second compound 10 µM, first compound 0.949 µM
  viability, T/C: 18%
Second compound 10 µM, first compound 3 µM
  viability, T/C: 9.82%
